≈ marks a conversion by molar mass, not a printed value.
Assays:
Enterococcus sp. = experiment: in vitro antibacterial evaluation, MIC by broth dilution; type: cell-based; conditions: broth dilution, 18 hours at 35° C.
Method in brief: (§1)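 Following National Committee for Clinical Laboratory Standards recommendations (M7-A2), susceptibility was measured by dilution in Muller-Hinton II […]. Bacteria were seeded at 5×10^5 CFU/mL against compound concentrations from 64 down to 0.06 μg/mL.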

Staphylococcus sp. = experiment: as above; type: cell-based; conditions: broth dilution, 18 hours at 35° C.
Method in brief: as §1

Streptococcus sp. = experiment: as above; type: cell-based; conditions: broth dilution, 18 hours at 35° C.
Method in brief: as §1

[1] = clinical pathology (serum clinical chemistry) in mice; type: in vivo; conditions: CD-1 mice, 20 mg/kg intravenously daily for 9 days, sera day 10
Experimental: 20-day-old CD-1 mice were divided into a vehicle control group (5 mice) and a treatment group (5 mice). Samples of glycopeptide antibiotics were administered at 20 mg/kg intravenously daily for 9 days.

[2] = anatomic pathology (histopathology of heart and kidney) in mice; type: in vivo; conditions: CD-1 mice, 20 mg/kg intravenously daily for 9 days, necropsy day 10, microscopic histopathology
Experimental: Samples of tissues from necropsied mice were formalin-fixed, paraffin-embedded, sectioned, stained with hematoxylin and eosin, and examined microscopically. Histopathologic findings were recorded. These findings were subjectively graded on a scale corresponding to slight, mild, moderate, marked and severe as compared to untreated controls.

Escherichia coli = experiment: in vitro antibacterial evaluation, MIC by broth dilution; type: cell-based; conditions: 18 hours at 35° C.
Method in brief: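 Broth dilution in Muller-Hinton II medium per NCCLS standard M7-A2, with an inoculum of 5×10^5 CFU/mL and antibiotic tested over 64-0.06 μg/mL. MIC was taken as the lowest concentration inhibiting visible growth.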

CC(c1ccccc1)C1NC(=O)CNC(=O)C(CO)NC(=O)C(C(O)C2CN(CCCCCCCCCCC(=O)O)C(=N)N2C2OC(CO)C(O)C(O)C2O)NC(=O)C(C(O)C2CNC(=N)N2)NC(=O)C(Cc2ccc(OC3OC(CO)C(OC4OC(CO)C(O)C(O)C4O)C(O)C3O)cc2)NC1=O (stereo not drawn) [Example 72, Cyclo[glycyl-β-methylphenylalanyl-O-(4-O-hexopyranosylhexopyranosyl)tyrosyl-3-(2-iminoimidazolidin-4-yl)seryl-3-[1-(10-carboxydecyl)-3-hexopyranosyl-2-iminoimidazolidin-4-yl]serylseryl]]
MIC Enterococcus avium (GC 4558) (Enterococcus sp.; Enterococcus avium (GC 4558)): 64 µg/mL (≈ 43.3 µM) | MIC Enterococcus faecalis (ATCC 29212) (Enterococcus sp.; Enterococcus faecalis (ATCC 29212)): >128 µg/mL | MIC Enterococcus faecalis (GC 4552) (Enterococcus sp.; Enterococcus faecalis (GC 4552)): >128 µg/mL | MIC Enterococcus faecalis (GC 4553) (Enterococcus sp.; Enterococcus faecalis (GC 4553)): 64 µg/mL (≈ 43.3 µM) | MIC Enterococcus faecalis (GC 4554) (Enterococcus sp.; Enterococcus faecalis (GC 4554)): >128 µg/mL | MIC Enterococcus faecalis (GC 6189) (Enterococcus sp.; Enterococcus faecalis (GC 6189)): >128 µg/mL | MIC Enterococcus faecium (GC 2243) (Enterococcus sp.; Enterococcus faecium (GC 2243)): >128 µg/mL | MIC Enterococcus faecium (GC 4556) (Enterococcus sp.; Enterococcus faecium (GC 4556)): >128 µg/mL | MIC Enterococcus faecium (GC 4557) (Enterococcus sp.; Enterococcus faecium (GC 4557)): 128 µg/mL (≈ 86.5 µM) | MIC Enterococcus avium (GC 4558) (Enterococcus sp.): 64 µg/mL (≈ 43.3 µM) | MIC Enterococcus faecalis (ATCC 29212) (Enterococcus sp.): >128 µg/mL | MIC Enterococcus faecalis (GC 2242) (Enterococcus sp.): >128 µg/mL | MIC Enterococcus faecalis (GC 2691) (Enterococcus sp.): >128 µg/mL | MIC Enterococcus faecalis (GC 3059) (Enterococcus sp.): >128 µg/mL | MIC Enterococcus faecalis (GC 4552) (Enterococcus sp.): >128 µg/mL | MIC Enterococcus faecalis (GC 4553) (Enterococcus sp.): 64 µg/mL (≈ 43.3 µM) | MIC Enterococcus faecalis (GC 4554) (Enterococcus sp.): >128 µg/mL | MIC Enterococcus faecalis (GC 6189) (Enterococcus sp.): >128 µg/mL | MIC Enterococcus faecium (GC 2243) (Enterococcus sp.): >128 µg/mL | MIC Enterococcus faecium (GC 4556) (Enterococcus sp.): >128 µg/mL | MIC Enterococcus faecium (GC 4557) (Enterococcus sp.): 128 µg/mL (≈ 86.5 µM) | MIC Enterococcus faecalis (GC 2242) (Enterococcus sp.; strain GC 2242): >128 µg/mL | MIC Enterococcus faecalis (GC 2691) (Enterococcus sp.; strain GC 2691): >128 µg/mL | MIC Enterococcus faecalis (GC 3059) (Enterococcus sp.; strain GC 3059): >128 µg/mL | MIC Staphylococcus aureus (ATCC 29213) (Staphylococcus sp.; strain ATCC 29213): >128 µg/mL | MIC Staphylococcus aureus (GC 1131) (Staphylococcus sp.; strain GC 1131): >128 µg/mL | MIC Staphylococcus aureus (GC 3051) (Staphylococcus sp.; strain GC 3051): >128 µg/mL | MIC Staphylococcus aureus (GC 3053) (Staphylococcus sp.; strain GC 3053): >128 µg/mL | MIC Staphylococcus aureus (GC 4541) (Staphylococcus sp.; strain GC 4541): >128 µg/mL | MIC Staphylococcus aureus (GC 4542) (Staphylococcus sp.; strain GC 4542): >128 µg/mL | MIC Staphylococcus aureus-SMITH (GC 4543) (Staphylococcus sp.; strain GC 4543): >128 µg/mL | MIC Staphylococcus aureus (GC 4544) (Staphylococcus sp.; strain GC 4544): >128 µg/mL | MIC Staphylococcus aureus (GC 4545) (Staphylococcus sp.; strain GC 4545): >128 µg/mL | MIC Staphylococcus haemolyticus (GC 4546) (Staphylococcus sp.; strain GC 4546): >128 µg/mL | MIC Coagulase Negative Staphylococcus (GC 4547) (Staphylococcus sp.; strain GC 4547): >128 µg/mL | MIC Coagulase Negative Staphylococcus (GC 4548) (Staphylococcus sp.; strain GC 4548): >128 µg/mL | MIC Coagulase Negative Staphylococcus (GC 4549) (Staphylococcus sp.; strain GC 4549): >128 µg/mL | MIC Coagulase Negative Staphylococcus (GC 4551) (Staphylococcus sp.; strain GC 4551): >128 µg/mL | MIC Coagulase Negative Staphylococcus (GC 6257) (Staphylococcus sp.; strain GC 6257): >128 µg/mL | MIC Streptococcus agalactiae (GC 4564) (Streptococcus sp.): 128 µg/mL (≈ 86.5 µM) | MIC Streptococcus pneumoniae (ATCC 6301) (Streptococcus sp.): 64 µg/mL (≈ 43.3 µM) | MIC Streptococcus pneumoniae (GC 1894) (Streptococcus sp.): 16 µg/mL (≈ 10.8 µM) | MIC Streptococcus pneumoniae (GC 4565) (Streptococcus sp.): 64 µg/mL (≈ 43.3 µM) | MIC Streptococcus pyogenes (GC 4563) (Streptococcus sp.): 64 µg/mL (≈ 43.3 µM) | MIC Streptococcus pneumoniae (ATCC 6301) (Streptococcus sp.; strain ATCC 6301): 64 µg/mL (≈ 43.3 µM) | MIC Streptococcus pneumoniae (GC 1894) (Streptococcus sp.; strain GC 1894): 16 µg/mL (≈ 10.8 µM) | MIC Streptococcus pyogenes (GC 4563) (Streptococcus sp.; strain GC 4563): 64 µg/mL (≈ 43.3 µM) | MIC Streptococcus agalactiae (GC 4564) (Streptococcus sp.; strain GC 4564): 128 µg/mL (≈ 86.5 µM) | MIC Streptococcus pneumoniae (GC 4565) (Streptococcus sp.; strain GC 4565): 64 µg/mL (≈ 43.3 µM) | Clinical Chemistry (Day 10) % of Control, BUN [1]: +122% | Anatomical Pathology (Day 10), Heart [2]: 0 | Anatomical Pathology (Day 10), Kidney [2]: ++ | MIC Escherichia coli (ATCC 25922) (Escherichia coli): >128 µg/mL | MIC Escherichia coli (GC 4559) (Escherichia coli): >128 µg/mL | MIC Escherichia coli (GC 4560) (Escherichia coli): 32 µg/mL (≈ 21.6 µM)
